Laboratory results as given in patent US9856298B2 (priority 2011, dated 2018).
Converted amounts (≈) assume the structure as drawn. Read-outs that look alike come from different tables or passages of the source. Numbered stars: 1 amine (or outer) side, 2 acyl side, 3 side chain; on linkers, the order of the positions; unused ones are H or OH. Square brackets hold non-standard residues; d marks the D form. Primed or numbered codes have the meaning given here. Side chains are listed from the residue outwards. Peptide text beside a SMILES is read from it. * marks the point of attachment. Orn(α-tetramethylguanidino) = CN(C)C(=N[C@@H](CCCN)C(=O)*)N(C)C; δOrn(α-TMG) = CN(C)C(=N[C@@H](CCCN[*:1])C(=O)[*:2])N(C)C; Guan″ = guanidino group at the N-terminus, N=C(N)*; sPEG750 = PEG of 750 linked via acid group; Guan = N-guanidino (N-terminal), N=C(N)*; Hyp = O=C(O)[C@@H]1C[C@@H](O)CN1; Tle = CC(C)(C)[C@H](N)C(=O)O; Orn = NCCC[C@H](N)C(=O)O

Experiments:
[1] = test system: Escherichia coli strain BL21AI; assay: Minimum inhibitory concentration in 1% TSB; type: cell-based; details: for MIC in TSB: E. coli BL21AI, 1% TSB, 20 hours at 37° C.; for Effect of peptide linker or remaining linker residues on the MIC: compared with the unmodified peptide
Protocol: (§1) To that end, the peptides were dissolved in water and diluted in a two-fold dilution series with 1% aqueous soybean medium (TSB) in sterile 96-well plates (Greiner Bio-One GmbH) from 128 μg/ml in twelve dilution steps to 62.5 ng/ml. Overnight cultures of Escherichia coli strain BL21AI were adjusted with 1% TSB to about […] colony forming units per ml. In each case 50 μl of peptide solution per well were then mixed with in each case 50 μl of the bacteria solution, in order to achieve a starting concentration of 4×10^5 bacteria per well. After incubation for 20 hours at 37° C., the absorption at 595 nm was determined (microplate reader, TECAN Trading AG).

[2] = test system: Escherichia coli strain BL21AI; assay: Minimum inhibitory concentration in TSB in the presence of 25% mouse serum; type: cell-based; details: E. coli BL21AI, TSB with 25% mouse serum, 20 hours at 37° C.
Protocol: as §1
In addition, the antibacterial activity was also determined in the presence of 25% mouse serum. To that end, the MIC values were determined as described above, but 25 μl of mouse serum were also added to each well before the incubation (25% final concentration).

[3] = Serum stability / release of peptide in pure mouse serum (100%) (RP-HPLC, MALDI-MS)
Protocol: (§2) 30 μl of a 1 mg/ml peptide solution were diluted with 120 μl of water and, after addition of 50 of serum, incubated at 37° C. for 0 hours, 0.5 hour, 1 hour, 2 hours or 4 hours. Alternatively, the peptide derivatives having a starting concentration of 3 mg/ml were diluted with serum to a final concentration of 15 μg/ml. According to the stability of the peptides, the samples were analysed at the times mentioned above or after 0 hours, 4 hours and 6 hours. The serum proteins were precipitated by addition of 50 μl of 15% TCA, and the supernatant was neutralised with 25 μl of 1 mol/l NaOH. The samples were made up to 250 μl with 5% B, 230 μl of the solution were transferred into a HPLC vial, and 220 μl were injected.
(§3) RP-HPLC analysis was carried out with a linear acetonitrile gradient (Biosolve BV, Valkenswaard, Netherlands) in the presence of 0.1% trifluoroacetic acid (TFA, UV grade, Fluka Chemie GmbH, Buchs, Switzerland) as ion-pair reagent. The fractions were co-crystallised with α-cyanohydroxycinnamic acid (Bruker Daltonik GmbH; Bremen, Germany) as matrix (4 mg/ml in 60% acetonitrile in 0.1% aqueous TFA) and analysed with a tandem mass spectrometer (MALDI-TOF/TOF-MS, 4700 Proteomics Analyzer; Applied Biosystems GmbH, Weiterstadt, Germany) in positive-ion reflector mode. The amount of intact peptides and their degradation products or metabolites could thus be identified and quantified at the individual times. 25% aqueous mouse serum, which was analysed in parallel for the same time intervals, was used as control.

25% aqueous mouse serum = details: 37° C., up to 6 hours
[4] = mouse; for uncleaved peptide remaining after the indicated time (instead of half-life): serum, 6 h, 15 µg/ml
Protocol: as §2, §3

[5] = Serum stability / release of peptide in 25% aqueous mouse serum (RP-HPLC, MALDI-MS); details: 25% (v/v) aqueous mouse serum
Protocol: as §2, §3

Compound	MIC in TSB [1]	MIC in TSB/mouse serum [2]	other results
CC[C@H](C)[C@H](NC(=O)[C@H](Cc1ccc(O)cc1)NC(=O)[C@@H](NC(=O)[C@@H]1CCCN1C(=O)[C@H](CCCNC(=N)N)NC(=O)[C@H](CC(N)=O)NC(=O)[C@H](CCCNC(=O)CNC(=O)[C@@H](N)CO)NC(=O)[C@H](CCCN)N=C(N(C)C)N(C)C)C(C)C)C(=O)N1CCC[C@H]1C(=O)N[C@@H](CCCNC(=N)N)C(=O)N1CCC[C@H]1C(=O)N[C@@H](CCCNC(=N)N)C(=O)N1CCC[C@H]1C(=O)N1CCC[C@H]1C(=O)N[C@@H](Cc1c[nH]cn1)C(=O)N1CCC[C@H]1C(=O)N[C@@H](CCCNC(=N)N)C(=O)N[C@@H](CC(C)C)C(=O)O [Api 300 (SG)] ({Orn(α-tetramethylguanidino)}-[Orn]([Gly-Ser])NRPVYIPRPRPPHPRL-OH)	0.8 µM (≈ 1.95 µg/mL)	0.21 µM	Effect of peptide linker or remaining linker residues on the MIC [1]: does not increase the MIC or increases it only insignificantly; half-life at 15 µg/ml ([3]; mouse, pure (100%) mouse serum): 240 min
Guan-O(sPEG^750-GARSG)NNRPVYIPRPRPPHPRL-OH	–	–	cleaved bond (25% aqueous mouse serum): R-S
sPEG^750-GAR-VDKPPYLPRPRPPROIYNO-NH2 (sPEG750-GARVDKPPYLPRPRPPR[Orn]IYN[Orn]-NH2) [sPEG^750-GAR-Onc 72]	12.2 µM	6.1 µM	Half-life (t1/2) in serum ([3]; pure mouse serum, 37° C.): 360 min
CC[C@H](C)[C@H](NC(=O)[C@H](CCCN)NC(=O)[C@H](CCCNC(=N)N)NC(=O)[C@@H]1CCCN1C(=O)[C@@H]1CCCN1C(=O)[C@H](CCCNC(=N)N)NC(=O)[C@@H]1CCCN1C(=O)[C@H](CCCNC(=N)N)NC(=O)[C@@H]1CCCN1C(=O)[C@H](CC(C)C)NC(=O)[C@H](Cc1ccc(O)cc1)NC(=O)[C@@H]1CCCN1C(=O)[C@@H]1CCCN1C(=O)[C@H](CCCCN)NC(=O)[C@H](CC(=O)O)NC(=O)[C@@H](NC(=O)[C@H](CCCNC(=N)N)NC(=O)[C@H](C)NC(=O)CN)C(C)C)C(=O)N[C@@H](Cc1ccc(O)cc1)C(=O)N[C@@H](CC(N)=O)C(=O)N[C@@H](CCCN)C(N)=O [GAR-Onc 72, GAR-VDKPPYLPRPRPPROIYNO-NH2] (H-GARVDKPPYLPRPRPPR[Orn]IYN[Orn]-NH2)	3.1 µM (≈ 8.03 µg/mL)	–	Effect of peptide linker or remaining linker residues on the MIC [1]: does not increase the MIC or increases it only insignificantly; remaining at 4 h, 15 µg/ml ([3]; mouse, pure (100%) mouse serum): 85%
sPEG^750-GAR-VDKPPYLPRPRPHypRHypTleYNO-NH2 (sPEG750-GARVDKPPYLPRPRP[Hyp]R[Hyp][Tle]YN[Orn]-NH2) [sPEG^750-GAR-Onc 110]	24.3 µM	9.2 µM	uncleaved peptide remaining after the indicated time (instead of half-life) [4]: 73%
CC[C@H](C)[C@H](NC(=O)[C@H](Cc1ccc(O)cc1)NC(=O)[C@@H](NC(=O)[C@@H]1CCCN1C(=O)[C@H](CCCNC(=N)N)NC(=O)[C@H](CC(N)=O)NC(=O)[C@H](CC(N)=O)NC(=O)[C@H](CCCNC(=O)CNC(=O)[C@H](CO)NC(=O)[C@H](CCCNC(=N)N)NC(=O)[C@H](C)NC(=O)CN)N=C(N(C)C)N(C)C)C(C)C)C(=O)N1CCC[C@H]1C(=O)N[C@@H](CCCNC(=N)N)C(=O)N1CCC[C@H]1C(=O)N[C@@H](CCCNC(=N)N)C(=O)N1CCC[C@H]1C(=O)N1CCC[C@H]1C(=O)N[C@@H](Cc1c[nH]cn1)C(=O)N1CCC[C@H]1C(=O)N[C@@H](CCCNC(=N)N)C(=O)N[C@@H](CC(C)C)C(=O)O [Api 137 (GARSG)] (H-GARSG[δOrn(α-TMG)]NNRPVYIPRPRPPHPRL-OH)	0.9 µM (≈ 2.45 µg/mL)	–	half-life at 150 µg/ml [5]: 30 min
CC(C)C[C@H](NC(=O)[C@H](Cc1ccc(O)cc1)NC(=O)[C@@H]1CCCN1C(=O)[C@@H]1CCCN1C(=O)[C@H](CCCCN)NC(=O)[C@H](CC(=O)O)NC(=O)[C@@H](NC(=O)[C@H](CCCNC(=N)N)NC(=O)[C@H](C)NC(=O)CN)C(C)C)C(=O)N1CCC[C@H]1C(=O)N[C@@H](CCCNC(=N)N)C(=O)N1CCC[C@H]1C(=O)N[C@@H](CCCNC(=N)N)C(=O)N1CCC[C@H]1C(=O)N1C[C@H](O)C[C@H]1C(=O)N[C@@H](CCCNC(=N)N)C(=O)N1C[C@H](O)C[C@H]1C(=O)N[C@H](C(=O)N[C@@H](Cc1ccc(O)cc1)C(=O)N[C@@H](CC(N)=O)C(=O)N[C@@H](CCCN)C(N)=O)C(C)(C)C [GAR-Onc 110] (H-GARVDKPPYLPRPRP[Hyp]R[Hyp][Tle]YN[Orn]-NH2)	1.5 µM (≈ 3.91 µg/mL)	0.65 µM	Effect of peptide linker or remaining linker residues on the MIC [1]: does not increase the MIC or increases it only insignificantly; remaining at 4 h, 15 µg/ml ([3]; mouse, pure (100%) mouse serum): 75%
Guan-O(sPEG^750-GRSG)NNRPVYIPRPRPPHPRL-OH	–	–	cleaved bond (25% aqueous mouse serum): R-S
CC[C@H](C)[C@H](NC(=O)[C@H](Cc1ccc(O)cc1)NC(=O)[C@@H](NC(=O)[C@@H]1CCCN1C(=O)[C@H](CCCNC(=N)N)NC(=O)[C@H](CC(N)=O)NC(=O)[C@H](CC(N)=O)NC(=O)[C@H](CCCNC(=O)CNC(=O)[C@H](CO)NC(=O)[C@H](CCCNC(=N)N)NC(=O)CN)N=C(N(C)C)N(C)C)C(C)C)C(=O)N1CCC[C@H]1C(=O)N[C@@H](CCCNC(=N)N)C(=O)N1CCC[C@H]1C(=O)N[C@@H](CCCNC(=N)N)C(=O)N1CCC[C@H]1C(=O)N1CCC[C@H]1C(=O)N[C@@H](Cc1c[nH]cn1)C(=O)N1CCC[C@H]1C(=O)N[C@@H](CCCNC(=N)N)C(=O)N[C@@H](CC(C)C)C(=O)O [Api 137 (GRSG)] (H-GRSG[δOrn(α-TMG)]NNRPVYIPRPRPPHPRL-OH)	0.7 µM (≈ 1.85 µg/mL)	–	half-life at 150 µg/ml [5]: 60 min
Guan-OO(sPEG^750-GARSG)NRPVYIPRPRPPHPRL-OH (Guan-[Orn][Orn]NRPVYIPRPRPPHPRL-OH; not fully specified (residue 2)) [Api 300 (sPEG^750-GARSG)]	2.9 µM	0.54 µM	Half-life (t1/2) in serum [4]: 35 min
Guan-OO(sPEG^750-GRSG)NRPVYIPRPRPPHPRL-OH (Guan-[Orn][Orn]NRPVYIPRPRPPHPRL-OH; not fully specified (residue 2)) [Api 300 (sPEG^750-GRSG)]	2.9 µM	0.37 µM	Half-life (t1/2) in serum [4]: 50 min
Guan-ONO(sPEG^750-GARSG)RPVYIPRPRPPHPRL-OH ({Guan″}-[Orn]N[Orn]RPVYIPRPRPPHPRL-OH; not fully specified (residue 3)) [Api 301 (sPEG^750-GARSG)]	2.9 µM	0.27 µM	Half-life (t1/2) in serum [4]: 45 min
tPEG^750-GAR-VDKPPYLPRPRPPROIYNO-NH2 (tPEG750-GARVDKPPYLPRPRPPR[Orn]IYN[Orn]-NH2; not fully specified; printed as tPEG^750-GAR-VDKPPYLPRPRPPROIYNO-NH2) [tPEG^750-GAR-Onc 72]	24.3 µM	–	uncleaved peptide remaining after the indicated time (instead of half-life) ([3]; pure mouse serum, 6 h): 55%
Guan-OO(tPEG^5000-GARSG)NRPVYIPRPRPPHPRL-OH (Guan-[Orn][Orn]NRPVYIPRPRPPHPRL-OH; not fully specified (residue 2)) [Api 300 (tPEG^5000-GARSG)]	17.4 µM	0.44 µM	uncleaved peptide remaining after the indicated time (instead of half-life) [4]: 69%
CC[C@H](C)[C@H](NC(=O)[C@H](Cc1ccc(O)cc1)NC(=O)[C@@H](NC(=O)[C@@H]1CCCN1C(=O)[C@H](CCCNC(=N)N)NC(=O)[C@H](CCCNC(=O)CNC(=O)[C@@H](N)CO)NC(=O)[C@H](CC(N)=O)NC(=O)[C@H](CCCN)N=C(N(C)C)N(C)C)C(C)C)C(=O)N1CCC[C@H]1C(=O)N[C@@H](CCCNC(=N)N)C(=O)N1CCC[C@H]1C(=O)N[C@@H](CCCNC(=N)N)C(=O)N1CCC[C@H]1C(=O)N1CCC[C@H]1C(=O)N[C@@H](Cc1c[nH]cn1)C(=O)N1CCC[C@H]1C(=O)N[C@@H](CCCNC(=N)N)C(=O)N[C@@H](CC(C)C)C(=O)O [Api 301 (SG)] ({Orn(α-tetramethylguanidino)}-N[Orn]([Gly-Ser])RPVYIPRPRPPHPRL-OH)	1.6 µM (≈ 3.9 µg/mL)	–	Effect of peptide linker or remaining linker residues on the MIC [1]: does not increase the MIC or increases it only insignificantly; remaining at 4 h, 15 µg/ml ([3]; mouse, pure (100%) mouse serum): 60%
Guan-O(GARSG)NNRPVYIPRPRPPHPRL-OH (H-GARSG[δOrn(α-TMG)]NNRPVYIPRPRPPHPRL-OH; SMILES CC[C@H](C)[C@H](NC(=O)[C@H](Cc1ccc(O)cc1)NC(=O)[C@@H](NC(=O)[C@@H]1CCCN1C(=O)[C@H](CCCNC(=N)N)NC(=O)[C@H](CC(N)=O)NC(=O)[C@H](CC(N)=O)NC(=O)[C@H](CCCNC(=O)CNC(=O)[C@H](CO)NC(=O)[C@H](CCCNC(=N)N)NC(=O)[C@H](C)NC(=O)CN)N=C(N(C)C)N(C)C)C(C)C)C(=O)N1CCC[C@H]1C(=O)N[C@@H](CCCNC(=N)N)C(=O)N1CCC[C@H]1C(=O)N[C@@H](CCCNC(=N)N)C(=O)N1CCC[C@H]1C(=O)N1CCC[C@H]1C(=O)N[C@@H](Cc1c[nH]cn1)C(=O)N1CCC[C@H]1C(=O)N[C@@H](CCCNC(=N)N)C(=O)N[C@@H](CC(C)C)C(=O)O)	–	–	cleaved bond (25% aqueous mouse serum): R-S
